Experiments:
Assay type in all cases: in vivo
[1] = system: cat fleas [Ctenocephalides felis (Bouche)]; experiment: Control of adult fleas in cats by means of subcutaneous injection; settings: for action against adult fleas: subcutaneous injection behind left shoulder blade
Procedure: Test protocol for each test compound: in order to determine the effectiveness of the test compounds against fully grown fleas, four groups each of two cats from 1.5 to 4 years of age are used. Each cat is infested with 100 cat fleas [Ctenocephalides felis (Bouche)]. Two groups are treated with 20 mg of active ingredient per kg body weight. The treatment is effected by subcutaneous injection of a solution of the active ingredient behind the left shoulder blade. While one group is infested with fleas but is treated only with a placebo, that is to say a formulation without active ingredient, and serves as control, another group is treated with nitenpyram as comparison substance. Evaluation is made in each case by combing surviving fleas out of the animal's coat and comparing the number counted with the number of fleas in the control group and in the group treated with nitenpyram. The procedure in detail is as follows: each cat is infested with 100 fleas immediately after treatment on day 0. On day +1, each animal is combed and the number of surviving fleas is determined; the surviving fleas are then replaced on the same cat and after 24 hours the combing and evaluation are repeated. The fleas still surviving after those 24 hours are not returned to the cat. The described procedure is then repeated on days +3, +7, +9, +14, +21 and +28 and in this way the effectiveness and duration of action is determined. The effectiveness is determined using the same formula as in the preceding Example.

[2] = system: cat fleas [Ctenocephalides felis (Bouche)]; experiment: Control of adult fleas in cats by means of pour-on application; settings: for action against adult fleas: pour-on on back of neck, 20 mg of active ingredient per kg body weight; for long-term action / long-term activity against adult fleas: evaluated up to day +63
Procedure: Test protocol for each test compound: in order to determine the effectiveness of the test compounds against fully grown fleas, four groups each of two cats are used. Each cat is infested with 100 cat fleas [Ctenocephalides felis (Bouche)] and treated with 20 mg of active ingredient per kg body weight. The treatment is effected by applying the formulation to a locally limited area on the back of the cat's neck. While one group is infested with fleas but is treated only with a placebo, that is to say a formulation without active ingredient, and serves as control, another group is treated with nitenpyram as comparison substance; the two remaining groups receive the test compounds. Evaluation is made in each case by combing surviving fleas out of the animal's coat and comparing the number counted with the number of fleas in the control group and in the group treated with nitenpyram. The procedure in detail is as follows: each cat is infested with 100 fleas immediately after treatment on day 0. On day +1, each animal is combed and the number of surviving fleas is determined; the surviving fleas are then replaced on the same cat and after 24 hours the combing and evaluation are repeated. The fleas still surviving after those 24 hours are not returned to the cat. The described procedure is then repeated on days +3, +7, +9, +14, +21, +28, +35, +42, +49, +56 and +63 and in this way the effectiveness and duration of action are determined. The effectiveness is determined in accordance with the following formula: [formula]

[3] = system: dog fleas [Ctenocephalides canis]; experiment: Control of adult fleas in dogs by means of pour-on application
Text: In dogs the test proceeds in an entirely analogous manner. In order to investigate the total action and any side-effects after administration in the form of a pour-on formulation, compound No. 1.008 is selected and tested on 11 dogs. The test protocol and the results are given in Example 7.
Test protocol for each test compound: in order to determine the effectiveness of the test compounds against fully grown fleas, three groups each of three dogs (1 male and 2 female beagles) are used; one group consists of two dogs (2 male beagles) and serves as control group. The entire test group consists of 11 beagles between 1 and 3.5 years of age. Each dog is infested with a total of 100 dog fleas [Ctenocephalides canis], 50 male and 50 female. Group 1 is treated with 2 mg, group 2 with 10 mg and group 3 with 20 mg of active ingredient per kg body weight. The treatment is effected by applying the pour-on formulation to a locally limited area on the back of the dog's neck. The fourth group is the control group. The latter is infested with fleas but is treated only with a placebo, that is to say a formulation without active ingredient, and serves for control purposes. Evaluation is made in each case by combing surviving fleas out of the animal's coat and comparing the number counted with the number of fleas in the control group. The procedure in detail is as follows: after treatment with the test formulation (day 0) each dog is infested on each of the subsequent days +1, +7, +14, +23, +28, +35, +49, +56, +63, +70, +77, +84 and +98 with 100 fleas. On the following day, each animal is combed and the number of surviving fleas is determined. The surviving fleas are then replaced on the same dog and after 24 hours the combing and evaluation are repeated. The fleas still surviving after those further 24 hours (2nd day after infestation with 100 fleas) are not returned to the dog. Then on days +3, +7, +9, +14, +21, +28, +35, +42 etc. the described procedure is repeated and in this way the effectiveness and the duration of action are determined. The effectiveness is determined using the formula given in Example 6.

Row | SMILES | action against adult fleas ([1]; cats, 20 mg/kg body weight) | action against adult fleas [2] | other results
1 | CCN(Cc1ccc(Cl)nc1)C(=C[N+](=O)[O-])N(C)C(=O)OCOC(C)=O [Compound 1.001] | Very good action | Very good action | –
2 | CCCCCC(=O)OCOC(=O)N(C)C(=C[N+](=O)[O-])N(CC)Cc1ccc(Cl)nc1 [Compound 1.019] | – | – | long-term action in a further, fully analogous test ([2]; pour-on): long-term action equally as excellent
3 | CCN(Cc1ccc(Cl)nc1)C(=C[N+](=O)[O-])N(C)C(=O)OCOC(=O)c1ccccc1 [Compound 1.018] | Very good action | Very good action | –
4 | CCCCC(=O)OCOC(=O)N(C)C(=C[N+](=O)[O-])N(CC)Cc1ccc(Cl)nc1 [Compound 1.008] | Very good action | Very good action | action (effectiveness) to which it gradually declines after 7 weeks ([2]; pour-on, 20 mg/kg body weight): 26%; long-term action / long-term activity against adult fleas ([2]; pour-on, 20 mg/kg body weight): especially high level of long-term activity; action (effectiveness) against fleas ([3]; dogs (beagles), pour-on, groups 2, 10 and 20 mg/kg (group not stated), 79 days after application): 100%; effectiveness against fleas ([3]; dogs (beagles), pour-on, groups 2, 10 and 20 mg/kg (group not stated), day 86): 98.6%; effectiveness against fleas ([3]; dogs (beagles), pour-on, groups 2, 10 and 20 mg/kg (group not stated), day 98): 92.3%; skin irritation or other undesirable side-effects ([3]; dogs of the three test groups, pour-on 2, 10 and 20 mg/kg body weight): no skin irritation or any other undesirable side-effects
5 | CCCCCCCC(=O)OCOC(=O)N(C)C(=C[N+](=O)[O-])N(CC)Cc1ccc(Cl)nc1 [Compound 1.011] | Very good action | Very good action | action (effectiveness) to which it gradually declines after 7 weeks ([2]; pour-on, 20 mg/kg body weight): 26%; long-term action / long-term activity against adult fleas ([2]; pour-on, 20 mg/kg body weight): especially high level of long-term activity
6 | CCN(Cc1ccc(Cl)nc1)C(=C[N+](=O)[O-])N(C)C(=O)OCOC(=O)C(C)(C)CC [Compound 1.056] | – | – | long-term action in a further, fully analogous test ([2]; pour-on): long-term action equally as excellent
7 | CCCCCCCCCCCCCC(=O)OCOC(=O)N(C)C(=C[N+](=O)[O-])N(CC)Cc1ccc(Cl)nc1 [Compound 1.013] | Very good action | Very good action | –
8 | CCCCCCC(=O)OCOC(=O)N(C)C(=C[N+](=O)[O-])N(CC)Cc1ccc(Cl)nc1 [Compound 1.057] | – | – | long-term action in a further, fully analogous test ([2]; pour-on): long-term action equally as excellent
9 | CCCCCCCCCCCCCCCCCC(=O)OCOC(=O)N(C)C(=C[N+](=O)[O-])N(CC)Cc1ccc(Cl)nc1 [Compound 1.015] | Very good action | Very good action | –
10 | CCCCCCCCCCCC(=O)OCOC(=O)N(C)C(=C[N+](=O)[O-])N(CC)Cc1ccc(Cl)nc1 [Compound 1.012] | Very good action | Very good action | period of full action ([1]; cats, subcutaneous injection, 20 mg/kg body weight): at least 20 days; long-term action / long-term activity against adult fleas ([1]; cats, subcutaneous injection, 20 mg/kg body weight, evaluated up to day +28): especially high level of long-term activity; action (effectiveness) to which it gradually declines after 7 weeks ([2]; pour-on, 20 mg/kg body weight): 26%; long-term action / long-term activity against adult fleas ([2]; pour-on, 20 mg/kg body weight): especially high level of long-term activity
11 | CCN(Cc1ccc(Cl)nc1)/C(=C\[N+](=O)[O-])NC [nitenpyram, (E)-N-(6-chloro-3-pyridylmethyl)-N-ethyl-N-methyl-2-nitrovinylidenediamine, reference compound] | – | – | period of full action ([1]; sc, 20 mg/kg): 2 days; period of full action (100% effectiveness) ([2]; pour-on, 20 mg/kg body weight): ≤ 3 weeks
12 | CCCCCCCCCCCCCCCC(=O)OCOC(=O)N(C)C(=C[N+](=O)[O-])N(CC)Cc1ccc(Cl)nc1 [Compound 1.014] | Very good action | Very good action | –
13 | CCN(Cc1ccc(Cl)nc1)C(=C[N+](=O)[O-])N(C)C(=O)OCOC(=O)c1ccc(C(C)(C)C)cc1 [Compound 1.022] | Very good action | Very good action | –
14 | CCCCCCCCCCC(=O)OCOC(=O)N(C)C(=C[N+](=O)[O-])N(CC)Cc1ccc(Cl)nc1 [Compound 1.058] | – | – | long-term action in a further, fully analogous test ([2]; pour-on): long-term action equally as excellent
